The test system of test [1] is Cold Restraint Ulcers (CRU). Description: Cold restraint ulcer (CRU) model. It is filed as in vivo, rats. As to the method:
Method: Adult rats of either sex, weighing 150-175 Gms were fasted for 24 hours with free access to water. The test drugs were administered 45 minutes before immobilizing the animals. The rats were immobilized in the restraint cage at 4° C. in BOD incubator for 2 hrs and were sacrificed immediately after the restraint period. (According to the method of Senay and Levine 1967). The abdomen was cut opened; stomach was taken out and incised along the greater curvature to observe the gastric lesions with the help of Magnascope (5× magnification).
(§1) The following arbitrary scoring system was used to grade the severity and intensity of the lesions. • 1. Shedding of epithelium=10 • 2. Petechial and frank hemorrhages=20 • 3. One or two ulcers=30 • 4. More than two ulcers=40 • 5. Perforated ulcers=50 The presence of any of these lesions was considered as a positive ulcerogenic response which has been shown as percentage of rats showing gastric lesions.
(§2) The severity of ulcers is expressed in terms of ulcer index, which is the mean score of gastric lesions of all the rats in a group which is defined as: • Ulcer Index (U. I.)=Us+Up×10^−1 • Where Us=Mean severity of ulcer score and Up-Percentage of animals with Ulcer incidences.
(§3) The percentage protection is calculated as follows: • Percentage protection ═(C-T/C)×100. • Wherein • C=Number of animals showing ulcer response in control group and • T=Number of animals showing ulcer response in test group.

The subject of test [2] is aspirin induced gastric ulcer. Put plainly: Aspirin induced gastric ulcer model. Type of test: in vivo, rats.
From the text: as §1, §2, §3
Method: Gastric ulceration was induced by aspirin according to the method of Djahanguiri (1969). Aspirin (150 mg/Kg.) was administered per orally as a suspension in gum-acacia and the animal was sacrificed 5 hr. after the aspirin treatment and the ulcer index with protection index were calculated.

The subject of the next test is Histamine induced ulcer. Put plainly: Histamine induced ulcer model. Type of test: in vivo, guinea pig. Particulars: HF2 50 mg/Kg p.o., Omeprazole 10 mg/kg p.o. As to the method:
Method: Animals were fasted for 24 hours with access to water. The drug was given orally 1 hour prior to the histamine administration. Histamine was administered in a dose of 0.25 mg/Kg, i.m. at 30 minutes interval-for 7 times and it induced 100% duodenal ulceration in guinea pig (According to the method of Watt and Eagleton 1964)^4. The animals were sacrificed after half an hour of last injection under ether anesthesia. The stomach along with duodenum was removed washed thoroughly and examined for the lesions and ulcer index with protection index was calculated. The effect of the herbal composition “HF2” and the standard drug “Omeprazole” against Histamine induced ulcer model is given in Table 4.

The mark [3] stands for this setting: HF 2 100 mg/Kg p.o., Omeprazole 10 mg/Kg p.o.

Turning to `COc1ccc2[nH]c([S+]([O-])Cc3ncc(C)c(OC)c3C)nc2c1` (stereo not shown) [Omeprazole], in test [1], the “protection against cold restraint ulcer model” value is 54.03%. Further, the “Percentage of ulcer incidence” value in test [1] (HF2 50 mg/Kg p.o., Omeprazole 10 mg/Kg p.o.) came out at 50%; in test [2] (setting [3]) it was 66.7%; in the test on Histamine induced ulcer, 33.3%. Moreover, the “Ulcer severity (type of lesions) score 10 (No. of rats showing lesions/No. of rats tested)” value in test [1] (score 10 = shedding of epithelium, HF2 50 mg/Kg p.o., Omeprazole 10 mg/Kg p.o., 4° C., 2 hrs restraint) was 3/10; in test [2] (Aspirin 150 mg/Kg p.o., HF 2 100 mg/Kg p.o., Omeprazole 10 mg/Kg p.o., 5 hr) it was 2/6. Also, the “Ulcer severity (type of lesions) score 20 (No. of rats showing lesions/No. of rats tested)” value in test [1] (score 20 = petechial and frank hemorrhages, HF2 50 mg/Kg p.o., Omeprazole 10 mg/Kg p.o.) is 2/10; in test [2] (Aspirin 150 mg/Kg p.o., HF 2 100 mg/Kg p.o., Omeprazole 10 mg/Kg p.o.) it was 2/6. In addition, the “protection against aspirin induced ulcer model” value in test [2] is given as 39.41%. Also, the “Mean severity of ulcer score” value in test [2] (setting [3]) was found to be 10.0. The Protection index in test [2] (setting [3]) is listed as 39.41. Besides, the Ulcer index in test [2] (setting [3]) is 7.67. For the same compound, in the test with Histamine induced ulcer (Histamine 0.25 mg/Kg i.m. × 7), the “Ulcer severity (type of lesions) score 20 (No. Guinea pig showing lesions/No. of Guinea pig tested)” value is 1/3.
